In US20230114728A1 (Venatorx Pharmaceuticals, Inc., priority 2019, published 2023):
Values after ≈ are worked out from the molar mass of the structure shown. Like-named read-outs stand apart in the source and are kept apart here.

Experiments:
[1] = biological target: T1, E. coli K12 PBP3 (Escherichia coli, UniProt P0AD68); test: biochemical; type: binding
T1 construct: made in house
Summary of the method: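 A. baumannii PBP2 (2.5 μM) and PBP3 (0.2 μM) were run in 25 mM Tris pH 8.0 buffer with Tween 20; E. coli PBP3 (1.5 μM) and N. gonorrhoeae PBP2 ([…]) in 50 mM Hepes pH 8.0 buffer.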

[2] = biological target: T2, P. aeruginosa PBP3 (Pseudomonas aeruginosa, UniProt G3XD46); test: Bocillin-FL fluorescence polarization competition binding assay, P. aeruginosa PBP3; settings: fluorescence polarization competition binding assay using Bocillin-FL
T2 construct: made in house
T2 sequence (G3XD46 whole entry): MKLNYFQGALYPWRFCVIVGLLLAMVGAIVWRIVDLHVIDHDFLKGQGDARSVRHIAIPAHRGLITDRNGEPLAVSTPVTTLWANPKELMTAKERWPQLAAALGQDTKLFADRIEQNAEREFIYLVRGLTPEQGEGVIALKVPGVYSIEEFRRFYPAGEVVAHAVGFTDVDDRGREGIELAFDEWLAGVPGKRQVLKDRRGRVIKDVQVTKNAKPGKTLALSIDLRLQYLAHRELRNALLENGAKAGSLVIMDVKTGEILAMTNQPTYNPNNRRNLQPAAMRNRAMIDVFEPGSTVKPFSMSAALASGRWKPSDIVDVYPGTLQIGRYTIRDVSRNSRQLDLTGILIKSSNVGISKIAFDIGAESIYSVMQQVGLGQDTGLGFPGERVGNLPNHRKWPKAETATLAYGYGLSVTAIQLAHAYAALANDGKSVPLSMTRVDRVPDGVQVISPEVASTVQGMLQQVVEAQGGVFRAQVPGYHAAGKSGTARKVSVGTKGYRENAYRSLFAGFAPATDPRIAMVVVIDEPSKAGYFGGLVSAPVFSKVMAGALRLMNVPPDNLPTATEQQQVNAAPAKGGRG
Summary of the method: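 Inhibitor competition with Bocillin-FL for P. aeruginosa PBP3 was followed by fluorescence polarization on a Cytation3 (BioTek) reader, using g-factor 0.96, 490 nm excitation and 520 nm emission. The enzyme was at 0.75 μM and the probe at 0.1 μM in Hepes/NaCl/glycerol buffer, 80 μl per well. FP was recorded immediately after probe addition for up to 60 minutes. Potency was expressed as EC50, the concentration that reduces bound probe by 50%.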

[3] = test system: N. gonorrhoeae ATCC 49226; test: Liquid broth MIC in Fastidious broth; type: cell-based; settings: Neisseria gonorrhoeae, ATCC49226; N. gonorrhoeae strain ATCC 49226; Fastidious broth; read-out: Minimum Inhibitory Concentration, N. gonorrhoeae ATCC 49226
Method: (§1) Example V: In Vitro Antibacterial Assays for N. gonorrhoeae Strains
(§2) Additional antibacterial testing of the series was performed in 8 reference strains of N. gonorrhoeae (ATCC 49226, FA1090, WHO G, WHO L, WHO K, H041, WHO Z, and WHO Q). ATCC 49226, FA1090, WHO G, and WHO L produce wild type or wild-type like PBP2. WHO K, H041, WHO Z, and WHO Q produce mosaic PBP2. Liquid broth-based assays were used for antibacterial testing of PBP inhibitors in Neisseria gonorrhoeae. Briefly, cryo-preserved bacterial cultures of clinical strains were streaked for isolation on Chocolate Agar (72 g/L (2×) GC Agar Base (BD #228950) and 2% (2×) Hemoglobin was autoclaved at 121° C. for 20 minutes to sterilize. Once cooled to ˜50° C. the 2× GC Agar Base and 2× Hemoglobin solutions are combined and 1% IsoVitaleX Enrichment (BD #211876) was added to the solution). Strains were incubated at 36° C. and 5% CO2 to allow growth of colonies, 24 hours before inoculum preparation. 2-fold serial dilutions of test compounds were conducted in a 96 well plate with a final volume of 75 μL per well at 2-fold the final desired concentration in Fastidious broth (Remel #R07664). For preparation of assay inoculum, a direct suspension was prepared by aseptically swabbing all colonies from agar plates into culture tubes containing 2 mL of fresh sterile saline. After the dilution plates were set up, direct suspensions were then diluted in a cuvette containing sterile saline and the optical density was measured at 600 nm. Inocula were diluted such that 75 μL of this culture in Fastidious broth results in a starting bacterial concentration of 5×10^5 CFU/mL when added to the dilution plates. The plates were incubated for ˜24 hours at 36° C. and 5% CO2. The MIC was read visually as the lowest concentration well with <10% bacterial growth compared to wells of full growth.

[4] = test system: N. gonorrhoeae FA1090; test: Liquid broth MIC in Fastidious broth; type: cell-based; settings: Neisseria gonorrhoeae; N. gonorrhoeae strain FA1090; Fastidious broth; read-out: Minimum Inhibitory Concentration, N. gonorrhoeae FA1090
Method: as §1, §2

[5] = test system: N. gonorrhoeae H041; test: Liquid broth MIC in Fastidious broth; type: cell-based; settings: Neisseria gonorrhoeae, H041, read-out: Minimum Inhibitory Concentration, N. gonorrhoeae H041
Method: as §1, §2

[6] = test system: N. gonorrhoeae WHO G; test: Liquid broth MIC in Fastidious broth; type: cell-based; settings: Neisseria gonorrhoeae, read-out: Minimum Inhibitory Concentration, N. gonorrhoeae WHO G
Method: as §1, §2

[7] = test system: N. gonorrhoeae WHO K; test: Liquid broth MIC in Fastidious broth; type: cell-based; settings: Neisseria gonorrhoeae, read-out: Minimum Inhibitory Concentration, N. gonorrhoeae WHO K
Method: as §1, §2

[8] = test system: N. gonorrhoeae WHO L; test: Liquid broth MIC in Fastidious broth; type: cell-based; settings: Neisseria gonorrhoeae, read-out: Minimum Inhibitory Concentration, N. gonorrhoeae WHO L
Method: as §1, §2

[9] = N. gonorrhoeae strain WHO G, Fastidious broth
[10] = N. gonorrhoeae strain WHO L, Fastidious broth

T1 sequence (P0AD68 1-577): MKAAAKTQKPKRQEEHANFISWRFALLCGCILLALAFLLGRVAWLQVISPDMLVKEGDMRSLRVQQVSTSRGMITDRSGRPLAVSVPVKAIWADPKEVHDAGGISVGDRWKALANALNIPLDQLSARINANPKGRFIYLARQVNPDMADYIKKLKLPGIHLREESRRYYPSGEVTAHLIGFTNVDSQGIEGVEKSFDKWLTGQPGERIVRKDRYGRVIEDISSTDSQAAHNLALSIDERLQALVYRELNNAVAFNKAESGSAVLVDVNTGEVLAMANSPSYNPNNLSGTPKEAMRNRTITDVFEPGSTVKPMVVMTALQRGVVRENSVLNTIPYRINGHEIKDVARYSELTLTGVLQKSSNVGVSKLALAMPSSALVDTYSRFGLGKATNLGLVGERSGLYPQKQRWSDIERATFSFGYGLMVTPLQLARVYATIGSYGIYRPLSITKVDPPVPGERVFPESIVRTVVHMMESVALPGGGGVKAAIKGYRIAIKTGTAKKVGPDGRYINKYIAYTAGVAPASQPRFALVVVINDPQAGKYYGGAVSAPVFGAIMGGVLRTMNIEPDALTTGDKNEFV

| Structure (SMILES) | EC50 [1] | P. aeruginosa PBP3 Potency [2] | MIC [3] | MIC [4] | MIC [5] | MIC [6, 9] | MIC [7] | MIC [8, 10] | MIC [6] | MIC [8] |
| --- | --- | --- | --- | --- | --- | --- | --- | --- | --- | --- |
| CCN1CCN(C(=O)NC(C(=O)N[C@H]2Cc3cccc(C(=O)O)c3OB2O)c2ccc(O)c(NC(=O)c3ccc(O)c(O)c3Cl)c2)C(=O)C1=O (stereo partly drawn) [Example 74, (3R)-3-(2-(3-(2-chloro-3,4-dihydroxybenzamido)-4-hydroxyphenyl)-2-(4-ethyl-2,3-dioxopiperazine-1-carboxamido)acetamido)-2-hydroxy-3,4-dihydro-2H-benzo[e][1,2]oxaborinine-8-carboxylic acid] | < 30 µM | D (D represents a potency <10 μM) | > 64 µg/mL | 1 to 2 µg/mL (≈ 1.41 to 2.82 µM) | > 64 µg/mL | 16 to 32 µg/mL (≈ 22.5 to 45.1 µM) | > 64 µg/mL | > 64 µg/mL | – | – |
| O=C(O)c1ccc(C(NC(=O)c2c(F)cc(O)c(O)c2Cl)C(=O)N[C@H]2Cc3ccc(F)c(C(=O)O)c3OB2O)cc1F (stereo partly drawn) [Example 71, (3R)-3-(2-(4-carboxy-3-fluorophenyl)-2-(2-chloro-6-fluoro-3,4-dihydroxybenzamido)acetamido)-7-fluoro-2-hydroxy-3,4-dihydro-2H-benzo[e][1,2]oxaborinine-8-carboxylic acid] | > 500 µM | D (D represents a potency <10 μM) | > 64 µg/mL | > 64 µg/mL | > 64 µg/mL | > 64 µg/mL | > 64 µg/mL | > 64 µg/mL | – | – |
| NCCN1CCN(C(=O)NC(C(=O)N[C@H]2Cc3cccc(C(=O)O)c3OB2O)c2c(F)cc(O)cc2Cl)C(=O)C1=O (stereo partly drawn) [Example 94, (3R)-3-(2-(4-(2-aminoethyl)-2,3-dioxopiperazine-1-carboxamido)-2-(2-chloro-6-fluoro-4-hydroxyphenyl)acetamido)-2-hydroxy-3,4-dihydro-2H-benzo[e][1,2]oxaborinine-8-carboxylic acid] | < 30 µM | – | > 64 µg/mL | 4 to 8 µg/mL (≈ 6.76 to 13.5 µM) | > 64 µg/mL | 16 to 32 µg/mL (≈ 27 to 54.1 µM) | > 64 µg/mL | > 64 µg/mL | – | – |
| NCCN1CCN(C(=O)NC(C(=O)N[C@H]2Cc3cccc(C(=O)O)c3OB2O)c2cc(F)c(O)cc2F)C(=O)C1=O (stereo partly drawn) [Example 93, (3R)-3-(2-(4-(2-aminoethyl)-2,3-dioxopiperazine-1-carboxamido)-2-(2,5-difluoro-4-hydroxyphenyl)acetamido)-2-hydroxy-3,4-dihydro-2H-benzo[e][1,2]oxaborinine-8-carboxylic acid] | < 30 µM | D (D represents a potency <10 μM) | > 64 µg/mL | 1 to 2 µg/mL (≈ 1.74 to 3.48 µM) | > 64 µg/mL | 4 to 8 µg/mL (≈ 6.95 to 13.9 µM) | > 64 µg/mL | > 64 µg/mL | – | – |
| O=C(Nc1ccccc1)NC(C(=O)N[C@H]1Cc2ccc(F)c(C(=O)O)c2OB1O)c1ncc(O)cc1F (stereo partly drawn) [Example 49, (3R)-7-fluoro-3-(2-(3-fluoro-5-hydroxypyridin-2-yl)-2-(3-phenylureido)acetamido)-2-hydroxy-3,4-dihydro-2H-benzo[e][1,2]oxaborinine-8-carboxylic acid] | 30 to 500 µM | D (D represents a potency <10 μM) | 16 to 32 µg/mL (≈ 31.2 to 62.5 µM) | 4 to 8 µg/mL (≈ 7.81 to 15.6 µM) | > 64 µg/mL | 16 to 32 µg/mL (≈ 31.2 to 62.5 µM) | > 64 µg/mL | 16 to 32 µg/mL (≈ 31.2 to 62.5 µM) | – | – |
| N=C(N)NC(C(=O)N[C@H]1Cc2ccc(F)c(C(=O)O)c2OB1O)c1ncc(O)cc1F (stereo partly drawn) [Example 52, (3R)-7-fluoro-3-(2-(3-fluoro-5-hydroxypyridin-2-yl)-2-guanidinoacetamido)-2-hydroxy-3,4-dihydro-2H-benzo[e][1,2]oxaborinine-8-carboxylic acid] | > 500 µM | A (A represents a potency of >500 μM) | > 64 µg/mL | > 64 µg/mL | > 64 µg/mL | > 64 µg/mL | > 64 µg/mL | > 64 µg/mL | – | – |
| NS(=O)(=O)NC(C(=O)N[C@H]1Cc2cccc(C(=O)O)c2OB1O)c1ccc(C(=O)O)c(F)c1 (stereo partly drawn) [Example 44, (3R)-3-(2-(4-carboxy-3-fluorophenyl)-2-(sulfamoylamino)acetamido)-2-hydroxy-3,4-dihydro-2H-benzo[e][1,2]oxaborinine-8-carboxylic acid] | > 500 µM | C (C represents a potency between 10 and 30 μM) | > 64 µg/mL | > 64 µg/mL | > 64 µg/mL | > 64 µg/mL | > 64 µg/mL | > 64 µg/mL | – | – |
| O=C(O)c1c(F)ccc2c1OB(O)[C@@H](NC(=O)C(NC(=O)N1CCN(CCBr)C(=O)C1=O)c1c(F)cc(O)c(O)c1F)C2 (stereo partly drawn) [Example 38, (3R)-3-(2-(4-(2-bromoethyl)-2,3-dioxopiperazine-1-carboxamido)-2-(2,6-difluoro-3,4-dihydroxyphenyl)acetamido)-7-fluoro-2-hydroxy-3,4-dihydro-2H-benzo[e][1,2]oxaborinine-8-carboxylic acid] | < 30 µM | – | 16 to 32 µg/mL (≈ 23.8 to 47.5 µM) | 4 to 8 µg/mL (≈ 5.94 to 11.9 µM) | > 64 µg/mL | – | > 64 µg/mL | – | 16 to 32 µg/mL (≈ 23.8 to 47.5 µM) | > 64 µg/mL |
| O=C(O)c1ccc(C(NC(=O)N2CCN(CCNC(=O)c3ccc(O)c(O)c3Cl)C(=O)C2=O)C(=O)N[C@H]2Cc3ccc(F)c(C(=O)O)c3OB2O)cc1F (stereo partly drawn) [Example 11, (3R)-3-(2-(4-carboxy-3-fluorophenyl)-2-(4-(2-(2-chloro-3,4-dihydroxybenzamido)ethyl)-2,3-dioxopiperazine-1-carboxamido)acetamido)-7-fluoro-2-hydroxy-3,4-dihydro-2H-benzo[e][1,2]oxaborinine-8-carboxylic acid] | < 30 µM | – | 16 to 32 µg/mL (≈ 20.7 to 41.4 µM) | 1 to 2 µg/mL (≈ 1.29 to 2.58 µM) | > 64 µg/mL | 4 to 8 µg/mL (≈ 5.17 to 10.3 µM) | > 64 µg/mL | > 64 µg/mL | – | – |
| CCN1CCN(C(=O)NC(C(=O)N[C@H]2Cc3ccc(O[C@@H]4CN[C@H](C(=O)N(C)C)C4)c(C(=O)O)c3OB2O)c2ccccc2)C(=O)C1=O (stereo partly drawn) [Example 59, (3R)-7-(((3S,5S)-5-(dimethylcarbamoyl)pyrrolidin-3-yl)oxy)-3-(2-(4-ethyl-2,3-dioxopiperazine-1-carboxamido)-2-phenylacetamido)-2-hydroxy-3,4-dihydro-2H-benzo[e][1,2]oxaborinine-8-carboxylic acid] | 30 to 500 µM | – | > 64 µg/mL | 4 to 8 µg/mL (≈ 6.02 to 12 µM) | > 64 µg/mL | > 64 µg/mL | > 64 µg/mL | > 64 µg/mL | – | – |
| CCN1CCN(C(=O)NC(C(=O)N[C@H]2Cc3ccc(SCc4ccc(O)cc4)c(C(=O)O)c3OB2O)c2csc(N)n2)C(=O)C1=O (stereo partly drawn) [Example 55, (3R)-3-(2-(2-aminothiazol-4-yl)-2-(4-ethyl-2,3-dioxopiperazine-1-carboxamido)acetamido)-2-hydroxy-7-((4-hydroxybenzyl)thio)-3,4-dihydro-2H-benzo[e][1,2]oxaborinine-8-carboxylic acid] | 30 to 500 µM | – | – | – | – | – | – | – | – | – |
| CCN1CCN(C(=O)NC(C(=O)N[C@H]2Cc3ccc(S)c(C(=O)O)c3OB2O)c2csc(N)n2)C(=O)C1=O (stereo partly drawn) [Example 54, (3R)-3-(2-(2-aminothiazol-4-yl)-2-(4-ethyl-2,3-dioxopiperazine-1-carboxamido)acetamido)-2-hydroxy-7-mercapto-3,4-dihydro-2H-benzo[e][1,2]oxaborinine-8-carboxylic acid] | 30 to 500 µM | – | – | – | – | – | – | – | – | – |
